As a reminder, the EC50 is the midpoint of the concentration-response curve.

This note sets out measurements from PMC6796659, “Topoisomerase IB poisons induce histone H2A phosphorylation as a response to DNA damage in Leishmania infantum” (International Journal for Parasitology: Drugs and Drug …, 2019).

Test [1] has as its system iRFP L. infantum amastigotes infecting mouse splenocytes. Put plainly: Antileishmanial activity on iRFP L. infantum amastigotes in ex vivo murine splenic explants. It counts as cell-based, Leishmania infantum. The protocol:
Five-week BALB/c female mice infected intraperitoneally with 1.5 × 10^9 metacyclic iRFP L. infantum promastigotes were sacrificed to eviscerate their spleens, which were processed to obtain a suspension of primary splenocytes. Briefly, freshly dissected spleens were washed with cold phosphate-buffered saline (PBS), cut in small pieces and incubated for 20 min with 5 mL of 2 mg/mL collagenase D (Sigma) prepared in buffer (10 mM HEPES, pH 7.4, 150 mM NaCl, 5 mM KCl, 1 mM MgCl2 and 1.8 mM CaCl2). Then, the cell suspension was passed through a 100 μm cell strainer, harvested by centrifugation (500×g for 7 min at 4 °C), washed twice with PBS, and resuspended in RPMI medium (Gibco) supplemented with 10 mM HEPES, 1 mM sodium pyruvate, 1xRPMI 1640 vitamin mix, 10% (v/v) FBS, 50 U/mL penicillin and 50 μg/mL streptomycin. The cell suspension was cultured in 384-well optical bottom black plates (Thermo Scientific) at 37 °C under 5% CO2 atmosphere.
(§1) The antileishmanial activity of the compounds was tested both in promastigotes and in amastigotes infecting mouse splenocytes. For this purpose, 384-well optical bottom black plates (Thermo Scientific) were seeded either with free-living iRFP L. infantum promastigotes or with splenic explants infected with iRFP L. infantum amastigotes, which were incubated at 26 °C or 37 °C, respectively. The viability of both iRFP L. infantum stages was measured by recording the fluorescence emitted by viable cells at 708 nm in an Odyssey (Li-Cor) infrared imaging system after a 72-h period of incubation with different concentrations of the compounds. Dose-response curves were obtained by plotting the infrared fluorescence emission of viable parasites vs. different concentrations of testing compounds and were fitted by nonlinear analysis using the Sigma-Plot 10.0 statistical package. The reduction of infrared emission with respect to the negative control was used to determine the 50% effective concentration to kill the parasites (EC50). Both controls and treated groups were tested with DMSO (drug vehicle) concentrations below 0.1%. All compounds and controls were assayed in triplicate.

The subject of test [2] is Leishmania topoisomerase IB (LTopIB). Put plainly: Relaxation of supercoiled pSK DNA by recombinant LTopIB. It counts as biochemical. Conditions: Table 1. The protocol: Expression and purification of LTopIB and hTopIB were carried out according to a previously standardized protocol ([Villa et al., 2003]). The effect of indenoisoquinolines (compounds 1 to 20) on recombinant LTopIB and hTopIB was determined by measuring the relaxation of negatively supercoiled pBluescript-SK DNA plasmid (pSK). Briefly, in a total volume of 20 μL, 100 U of recombinant TopIB were incubated with 0.5 μg of pSK DNA in 10 mM Tris-HCl buffer (pH 7.5), 5 mM MgCl2, 5 mM dithiothreitol (DTT), 0.1 mM EDTA, […] bovine serum albumin, and 150 mM KCl. Different concentrations of indenoisoquinolines were also added. Following a 4-min incubation period at 25 °C, reactions were stopped with 1% (w/v) SDS, and incubated for one extra hour at 37 °C in the presence of 1 mg/mL proteinase K. Subsequently, samples were extracted with 1 vol phenol-chloroform mixture and were loaded on a 1% agarose gel containing 0.1 μg/mL ethidium bromide. The gel was run for 16 h at 4 V/cm, and the images were acquired using a G-Box system (Syngene, United Kingdom).

Test [3] relates to TopIB-DNA complexes in L. infantum promastigotes. Put plainly: SDS/K-DNA precipitation (in situ cleavage complex formation). Type of test: cell-based, Leishmania infantum. Conditions: highest concentration 30 μM, 30 min, data not shown. As for the experimental part:
In order to measure the fragmentation of DNA induced by Top poisons, L. infantum promastigotes, previously labeled with 0.5 mCi/mL [2–^14C] thymidine for 24 h, were exposed to different concentrations of indenoisoquinolines for 30 min, followed by precipitation with SDS/KCl, according to the method described previously ([Balaña-Fouce et al., 2012]). DNA fragmentation was determined as the percentage of total labeled DNA, and was calculated as follows: [(dpm in SDS/KCl drug - dpm in SDS/KCl solvent)/(dpm total incorporation)] x 100. Each experiment was run at least in triplicate.

Test [4] deals with iRFP L. infantum promastigotes. The test is described as follows: Antileishmanial activity on free-living iRFP L. infantum promastigotes (infrared fluorescence viability). It counts as cell-based. Conditions: Leishmania infantum, 72 h, 26 °C. As for the experimental part: Histone phosphorylation assays were performed in promastigotes of L. infantum BCN 150 strain, whereas the antiparasitic activity of the compounds was assessed on the transgenic strain that constitutively expresses the irfp gene encoding the infrared iRFP protein (iRFP L. infantum strain) ([Calvo-Álvarez et al., 2015]), which is derived from L. infantum BCN 150. Both strains were grown at 26 °C in M-199 medium (Gibco) supplemented with 25 mM HEPES pH 7.2, 0.1 mM adenine, 0.0005% (w/v) hemin, 2 μg/mL biopterin, 0.0001% (w/v) biotin, 10% (v/v) heat-inactivated fetal bovine serum (FBS) and an antibiotic cocktail comprising 50 U/mL penicillin and 50 μg/mL streptomycin.
as §1

Test [5] relates to histone H2A (Thr128) in L. infantum promastigotes. Put plainly: Histone H2A phosphorylation (γH2A) by Western blot. It counts as cell-based, Leishmania infantum. As to conditions: 10 μM, 0, 15, 60, 120 min. As for the experimental part:
To detect H2A phosphorylation by L. infantum promastigotes, parasites in exponential growing phase (5–6 x 10^6 cells/mL) were incubated at 26 °C with CPT derivatives and indenoisoquinolines at a final concentration in the supplemented 199 standard medium of 10 μM. Control cells were treated with the drug vehicle DMSO using concentrations below 0.1%. After 0, 15, 60 and 120-min incubations, promastigotes were harvested by centrifugation, washed twice in PBS and the pellet resuspended in lysis buffer containing 50 mM Tris (pH:7), 50 mM NaCl, 20 mM NaF, 0.1% Tween 20 and 2x protease inhibitors (PIERCE™ protease inhibitor mini tablets). Twenty micrograms of the different extracts were loaded onto 15% SDS-PAGE gels, electrophoresed and transferred to PVDF membranes (Immobilon-FL, Millipore) using a mini trans-blot electrophoretic transfer cell (Bio-Rad). Polyclonal γH2A antisera were used at a 1:2000 dilution and secondary goat anti-rabbit IgG IRDye680 (Li-Cor Biosciences) was used at a 1:15000 dilution. The peptide competition assay was done incubating the polyclonal γH2A antisera with 50 ng/mL of the appropriate peptide (with and without phosphorylation at Thr residue) in blocking buffer for 1 h at room temperature before blotting. Loading control was performed using a monoclonal α tubulin mouse antibody at 2 μg/mL (final concentration) and a goat anti-mouse IgG IRDye 800 (Li-Cor Biosciences) as secondary antibody. Bands were visualized in an Odissey® (Li-Cor Biosciences) infrared detection facility. The quantification of γH2A signal was done with Bio-Rad Quantity One Analysis Software.
(Immunoblotting shows a protein as a band on a membrane.)

In the case of `NCCCn1c2c(c3ccccc3c1=O)C(=O)c1ccccc1-2` [Compound 2], in test [1] (CC50 (splenocytes)/EC50 (amastigotes)), the “SI (Selectivity Index)” value was 4.9. The EC50 in test [1] (Leishmania infantum, Splenocyte, splenic-infecting iRFP L. infantum amastigotes, 72 h, 37 °C, read-out: EC50 (μM) L. infantum amastigotes) was 0.12 ± 0.05 µM; in test [4] it was 0.34 ± 0.03 µM. Further, in test [2], the LTopIB inhibition entry is “+++ (inhibition at 1 μM)”. In addition, the “protein-DNA complexes (SDS/K-DNA precipitable)” value in test [3] was 10%. Moreover, the “γH2A signal (H2A phosphorylation), Western blot” value in test [5] is listed as “strong γH2A signaling”.
